*1 amine or outer side, *2 acyl side, *3 side chain or, on linkers, in order; H or OH if unused. Where a SMILES comes first, the peptide text is derived from it. Bridges are numbered along the chain shown (N, C = ends). [ ]: non-standard residue; d: D form. The star is where a group is joined. NMeHph(3-OMe-4-CONHMe) = CNC(=O)c1ccc(CC[C@H](NC)C(=O)O)cc1OC; NMeAbu(3,3-F2-piperidino) = CN[C@@H](CCN1CCCC(F)(F)C1)C(=O)O; hPhe(3-OMe,4-CONHMe) = CNC(=O)c1ccc(CC[C@H](N)C(=O)O)cc1OC; Phe(3-CONHMe,4-OMe) = CNC(=O)c1cc(C[C@H](N)C(=O)O)ccc1OC; NMePhe(3-Cl) = CN[C@@H](Cc1cccc(Cl)c1)C(=O)O; X12 = O=C([C@H](CCCC(O)C(F)(F)F)N[*:1])[*:2]; NMeF = CN[C@@H](Cc1ccccc1)C(=O)O; NMeGABA = CN(CCCC(=O)[*:2])[*:1]; NMeI = CC[C@H](C)[C@H](NC)C(=O)O; NMeL = CN[C@@H](CC(C)C)C(=O)O; Butyl(3R-OH) = C[C@@H](O)CC*; NMeV = CN[C@H](C(=O)O)C(C)C; NMeAbu = CC[C@H](NC)C(=O)O; NMeA = CN[C@@H](C)C(=O)O; Piperidide = C1CCN(*)CC1; NBuGly = CCCCNCC(=O)O; Isopentyl = CC(C)CC*; X3 = C[C@H](O)C*; Sar = CNCC(=O)O; tBu = CC(C)(C)*
Assay: in vitro
Conditions: human
[1] = Caco-2, Caco-2 (membrane permeability)

SMILES | Papp (Caco-2, Caco-2 (cm/sec)) | other results
CC(C)C[C@@H]1NC(=O)[C@H]([C@@H](C)O)NC(=O)[C@H](CC(C)C)N(C)C(=O)C[C@@H](C(=O)N2CCCCC2)NC(=O)[C@H](COC(C)(C)C)NC(=O)[C@H](Cc2ccccc2)NC(=O)[C@H](C)N(C)C(=O)[C@H](Cc2ccccc2)NC(=O)CN(C)C(=O)[C@H](Cc2ccccc2)N(C)C(=O)[C@H](Cc2ccccc2)N(C)C1=O [pd245] ([NMeL]TL[NMeF][NMeF][Sar]F[NMeA]FS(tBu)D-Piperidide; lactam N-11) |  | Papp (Caco-2, Caco-2 (cm/sec) Papp): 0.019 ×10⁻⁶ cm/s
CCCCN1CC(=O)N(C)[C@@H](C(C)C)C(=O)N[C@@H](COC(C)(C)C)C(=O)N(C)[C@@H](Cc2ccccc2)C(=O)N(C)[C@@H](CC(C)C)C(=O)N[C@H](C(=O)N2CCCCC2)CC(=O)N[C@H](C(C)C)C(=O)N(C)[C@@H](Cc2ccccc2)C(=O)N[C@@H](COCC[C@@H](C)O)C(=O)N(C)[C@@H](CC(C)C)C(=O)N[C@@H]([C@@H](C)O)C1=O [AP108] ([dV][NMeF]S(Butyl(3R-OH))[NMeL]T[NBuGly][NMeV]S(tBu)[NMeF][NMeL]D-Piperidide; lactam N-11) | 0.81 ×10⁻⁶ cm/s | 
CCCCN1CC(=O)N(C)[C@@H](CC(C)C)C(=O)N[C@@H](COC(C)(C)C)C(=O)N(C)[C@@H]([C@@H](C)CC)C(=O)N(C)[C@@H](CC(C)C)C(=O)N[C@H](C(=O)N2CCCCC2)CC(=O)N[C@H](C)C(=O)N(C)[C@@H](Cc2ccccc2)C(=O)N[C@@H](Cc2ccc(OC)c(C(=O)NC)c2)C(=O)N(C)[C@@H](CC(C)C)C(=O)N[C@@H]([C@@H](C)O)C1=O [AP37] ([dA][NMeF][Phe(3-CONHMe,4-OMe)][NMeL]T[NBuGly][NMeL]S(tBu)[NMeI][NMeL]D-Piperidide; lactam N-11) | 0.4 ×10⁻⁶ cm/s | 
CC[C@H](C)[C@@H]1NC(=O)[C@H](CC(C)C)N(C)C(=O)CCCN(C)C(=O)C[C@@H](C(=O)N2CCCCC2)NC(=O)[C@H](CC(C)C)N(C)C(=O)[C@H](CC(C)C)N(C)C(=O)[C@H]([C@@H](C)O)NC(=O)[C@H](CC(C)C)N(C)C(=O)[C@H](COC(C)(C)C)NC(=O)[C@H](Cc2ccccc2)N(C)C(=O)[C@H](CCc2ccc(C(=O)NC)c(OC)c2)N(C)C1=O [AP227] ([NMeGABA][NMeL]I[NMeHph(3-OMe-4-CONHMe)][NMeF]S(tBu)[NMeL]T[NMeL][NMeL]D-Piperidide; lactam N-11) | 0.48 ×10⁻⁶ cm/s | 
CCCCN1CC(=O)N(C)[C@@H](CC(C)C)C(=O)N[C@@H](CCCC(O)C(F)(F)F)C(=O)N(C)[C@@H](Cc2ccccc2)C(=O)N(C)[C@@H](C(C)C)C(=O)N[C@H](C(=O)N2CCCCC2)CC(=O)N[C@H](C(C)C)C(=O)N(C)[C@@H](Cc2ccccc2)C(=O)N[C@@H](CC(C)C)C(=O)N(C)[C@@H](CC(C)C)C(=O)N[C@@H]([C@@H](C)O)C1=O (stereo partly drawn) [Compound D09] ([dV][NMeF]L[NMeL]T[NBuGly][NMeL][X12][NMeF][NMeV]D-Piperidide; lactam N-11) |  | Papp [1]: 0.13 ×10⁻⁶ cm/s
CC(C)CCOC[C@@H]1NC(=O)[C@H](CCN2CCCC(F)(F)C2)N(C)C(=O)[C@H](Cc2ccccc2)N(C)C(=O)CN(C)C(=O)[C@H]([C@@H](C)O)NC(=O)[C@H](CC(C)C)N(C)C(=O)[C@H](CC(C)C)NC(=O)[C@H](Cc2ccccc2)N(C)C(=O)CN(C)C(=O)C[C@@H](C(=O)N2CCCCC2)NC(=O)[C@H](CC(C)C)N(C)C1=O [pd393] ([Sar][NMeF]L[NMeL]T[Sar][NMeF][NMeAbu(3,3-F2-piperidino)]S(Isopentyl)[NMeL]D-Piperidide; lactam N-11) |  | Papp (Caco-2, Caco-2): 2.8 ×10⁻⁶ cm/s
CC(C)C[C@H]1C(=O)N[C@@H](CCCC(O)C(F)(F)F)C(=O)N(C)[C@@H](Cc2cccc(Cl)c2)C(=O)N(C)[C@@H](Cc2ccccc2)C(=O)N[C@@H](COC(C)(C)C)C(=O)N(C)[C@@H](CC(C)C)C(=O)N[C@@H]([C@@H](C)O)C(=O)N(C)[C@@H](CC(C)C)C(=O)N(C)[C@@H](CC(C)C)C(=O)N[C@H](C(=O)N2CCCCC2)CC(=O)N(C)CCCC(=O)N1C (stereo partly drawn) [Compound D02] ([NMeGABA][NMeL][X12][NMePhe(3-Cl)][NMeF]S(tBu)[NMeL]T[NMeL][NMeL]D-Piperidide; lactam N-11) |  | Papp [1]: 0.14 ×10⁻⁶ cm/s
CC[C@H]1C(=O)N[C@@H](CCc2ccc(C(=O)NC)c(OC)c2)C(=O)N(C)[C@@H](CC(C)C)C(=O)N(C)[C@@H](CC(C)C)C(=O)N[C@@H](C(C)C)C(=O)N(C)[C@@H](Cc2ccccc2)C(=O)N(C)[C@@H](CC(C)C)C(=O)N[C@@H]([C@@H](C)O)C(=O)N(C)CC(=O)N(C)[C@@H](CC(C)C)C(=O)N[C@H](C(=O)N2CCCCC2)CC(=O)N1C [AP205] ([NMeAbu][hPhe(3-OMe,4-CONHMe)][NMeL][NMeL]V[NMeF][NMeL]T[Sar][NMeL]D-Piperidide; lactam N-11) | 0.79 ×10⁻⁶ cm/s | 
CC[C@H](C)[C@H]1C(=O)N[C@@H]([C@@H](C)O)C(=O)N(C)CC(=O)N(C)[C@@H](CC(C)C)C(=O)N[C@H](C(=O)N2CCCCC2)CC(=O)N(C)[C@@H](C(C)C)C(=O)N[C@@H](COC[C@H](C)O)C(=O)N(C)[C@@H](CC(C)C)C(=O)N(C)[C@@H](Cc2cccc(Cl)c2)C(=O)N[C@@H](CC(C)C)C(=O)N(C)[C@@H](Cc2ccccc2)C(=O)N1C [AP69] ([NMeV]S(X3)[NMeL][NMePhe(3-Cl)]L[NMeF][NMeI]T[Sar][NMeL]D-Piperidide; lactam N-11) | 0.7 ×10⁻⁶ cm/s | 

Source: patent US20230096766A1, “AMINO ACID HAVING FUNCTIONAL GROUP CAPABLE OF INTERMOLECULAR HYDROGEN BONDING, PEPTIDE COMPOUND CONTAINING SAME AND METHOD FOR PRODUCTION THEREOF” (Chugai Seiyaku Kabushiki Kaisha, priority 2018, published 2023)
